According to patent US7964701B2, “Alpha-fetoprotein peptides” (Albany Medical College, priority 2006, dated 2011):
Where a SMILES comes first, the peptide text is derived from it. Where no end group is shown, it is not given here. [ ]: non-standard residue; d: D form. Hyp = O=C(O)[C@@H]1C[C@@H](O)CN1

How the values were obtained:
[1] = test system: E2-stimulated growth of mouse uterus; assay: Immature mouse uterine growth assay; type: in vivo; conditions: for antiestrogenic activity (inhibition of E2-stimulated uterine growth), in words: Table 3 discussion; for antiestrogenic activity (inhibition of E2-stimulated uterine growth), in words / Inhibition ± S.E, % Immature mouse uterine growth Intraperitoneal: 1 μg/mouse intraperitoneally; for Activity % ± SD (percent growth inhibition of uterus): dose 1 ug/animal; for dose-response profile, inhibition of E2-stimulated uterine growth: FIG. 5
Description: The anti-breast cancer activity of the linear and cyclic 8-mer and 9-mer AFP-derived peptides is well-documented using the immature mouse uterine growth assay and the human breast cancer xenograft assay; there is a strong correlation between the results of these two assays. To evaluate peptide-induced inhibition by the peptide of the present invention of estrogen-stimulated proliferation of normal tissue, the immature mouse uterine growth assay was utilized. Briefly, 13-15 day-old Swiss/Webster female mice, 6-8 g in body weight, were distributed into treatment groups of 5 mice per group so that each group contained animals of the same range of body weight. The peptide of the invention was injected i.p., s.c., or p.o. into the mice. One hour later, estradiol (E2) or vehicle control for E2 was injected i.p. Twenty-two hours after the second injection, uteri were harvested, trimmed free of mesenteries, and immediately weighed. The uterine weights were normalized to mouse body weights to compensate for differences in body weight among litters of the same age. Experiments employed a minimum of five mice per group and the mean normalized uterine weight±SE for each group was calculated. Percent growth inhibition in a test group was calculated from normalized uterine wet weights as described below.
Differences between groups were evaluated, employing the nonparametric Wicoxon ranks sum test. In all cases, growth inhibitions that were greater than 25% were significant at P≦0.05.
In other experiments, peptide analogs comprising the sequences TOVN SEQ ID NO.: 3) and TPVN (SEQ ID NO.: 2) were assessed for their ability to inhibit E2-stimulated growth of mouse uterus after intraperitoneal and oral administration.
The ability to inhibit E2-stimulated growth of normal mouse uterus was used as a screening assay for biological activity of AFPep analogs. In general, inhibitory activity≧20% is considered to be biologically significant. Each analog's inhibitory effect on E2-stimulated growth was compared to AFPep (a positive control) and to PGVGQ (SEQ ID NO.: 44)(a negative control). PGVGQ (SEQ ID NO.: 44) (amino acids 478-482 of AFP) is a portion of the primary structure of AFP near to the anti-cancer active site of AFP and is comprised of amino acids (P, V, and G) that are important components of AFPep. A scrambled analog of AFPep was not used because some scrambled peptides retain low biological activity (data not shown). In Table 3, bold letters denote the sequences containing a putative Type I beta-turn, which was postulated to be necessary for antiestrogenic activity.

[2] = test system: T47D human breast cancer cells; conditions: for inhibition of E2-stimulated T47D cell growth, in words: Table 3 discussion, 1 μM; for concentration up to which E2-stimulated T47D growth was inhibited in a concentration dependent manner / activity maintained / dose response profile, inhibition of E2-stimulated T47D cell growth: FIG. 6
Protocol: T47D cells were obtained from ATCC® (Rockville, Md.) and grown in culture according recommended protocols. Cells were treated with 1 nM estrogen or 100 nM TOVNO (SEQ ID NO.: 7)/1 nM estrogen. Control cells received 10% estrogen-free media. Cells were treated for seven days.
A number of AFPep analogs were assessed for in vitro anticancer activity.

[3] = test system: MCF-7 human breast cancer cells; assay: MCF-7 human tumor xenograft assay in SCID mice; type: in vivo, mouse; conditions: for change in mean tumor volume: FIG. 1
Protocol: The peptides of the invention were evaluated for their ability to inhibit tumor growth in a human tumor xenograft assay. Briefly, MCF-7 human breast cancer cells were obtained from ATCC® (Rockville, Md.) and were grown in DMEM supplemented with 5% FCS, 1% non-essential amino acids, 10 ng/ml insulin, 2 mM L-glutamine, 100 units/ml penicillin, and 100 μg/ml streptomycin. MCF-7 cells from culture were solidified into a fibrin clot. The tumor-containing clots were cut into pieces about 1.5 mm in diameter and implanted under the kidney capsule of severe combined immunodeficient (ICR-SCID) mice (Taconic Farms, Germantown, N.Y.) as described in Bennett et al. (Clin. Cancer Res. 1998; 4:2877-84).
Estrogen supplementation of mice was required for the growth of MCF-7 tumors. Supplementation was accomplished by s.c. implantation of a Silastic tubing capsule containing solid E2 (2 mm in length) inserted on the day of tumor implantation. Tumor size was evaluated during survival laparotomy using a dissecting microscope at the time of tumor implantation and at days 15 and 30 after tumor implantation.
The T47D human breast cancer cell line is responsive in culture, but it was a less reliable tool when grown as a xenograft tumor in immune deficient mice, having a take-rate of <60% in these mice. However, the MCF-7 human breast cancer cell line has a tumor take-rate of 100% in immune deficient mice and is completely dependent on E2 for growth in these mice (2). Consequently, MCF-7 xenografts were used as a model for ER+human breast cancer to evaluate, in vivo, the effectiveness of TOVNO (SEQ ID NO.: 7) and TOVNOGNEK (SEQ ID NO.: 34) as anticancer agents.

[4] = once a day 10 μg per mouse i.p., FIG. 7b
[5] = once a day 100 μg by oral gavage, FIG. 7a

Q: `CC(C)[C@H](NC(=O)[C@@H]1C[C@@H](O)CN1)C(=O)N[C@@H](CC(N)=O)C(=O)N1C[C@H](O)C[C@H]1C(=O)NCC(N)=O` [OVNOG] (H-[Hyp]VN[Hyp]G-NH2; N-terminus assumed) was tested. Which “antiestrogenic activity (inhibition of E2-stimulated uterine growth), in words” value [1] did it give?
A: weakly inhibited E2-stimulated uterine growth

Q: For “EMTPV [5-mer outside the pharmacophoric region]”, which “Inhibition ± S.E, % Immature mouse uterine growth Intraperitoneal” value [1] is on record?
A: 5 ± 4%

Q: And the “antiestrogenic activity (inhibition of E2-stimulated uterine growth), in words” value [1]?
A: little or no antiestrogenic activity

Q: Which “Inhibition ± S.E, % Immature mouse uterine growth Intraperitoneal” value [1] does the source give for KTPVNPG here?
A: 34 ± 2 %

Q: And the “antiestrogenic activity (inhibition of E2-stimulated uterine growth), in words” value [1]?
A: significantly inhibited E2-stimulated uterine growth

Q: `CC(C)[C@H](NC(=O)[C@@H]1C[C@@H](O)CN1C(=O)[C@@H](NC(=O)[C@@H](N)CCCCN)[C@@H](C)O)C(=O)N[C@@H](CC(N)=O)C(=O)N1C[C@H](O)C[C@H]1C(=O)NCC(N)=O` [KTOVNOG] (H-KT[Hyp]VN[Hyp]G-NH2; N-terminus and C-terminus assumed) was tested. Which “antiestrogenic activity (inhibition of E2-stimulated uterine growth), in words” value [1] did it give?
A: significantly inhibited E2-stimulated uterine growth

Q: For `CC(C)[C@H](NC(=O)[C@@H]1C[C@@H](O)CN1C(=O)[C@@H](N)[C@@H](C)O)C(=O)N[C@@H](CC(N)=O)C(N)=O` [TOVN] (H-T[Hyp]VN-NH2; N-terminus assumed), which “antiestrogenic activity (inhibition of E2-stimulated uterine growth), in words” value [1] is on record?
A: weak antiestrogenic activity

Q: What about the “inhibition of E2-stimulated T47D cell growth, in words” value [2] of the same molecule?
A: very weak inhibitory activity

Q: Which results are given for TPVNP?
A: Inhibition ± S.E, % Immature mouse uterine growth Intraperitoneal [1]: 27 ± 1 %; Activity % ± SD (percent growth inhibition of uterus) [1]: 26%

Q: How did the “Inhibition ± S.E, % Immature mouse uterine growth Intraperitoneal” value [1] turn out when “EMTOV (EMT[Hyp]V; not fully specified (C-terminus)) [5-mer outside the pharmacophoric region]” was run?
A: 1 ± 1%

Q: And the “antiestrogenic activity (inhibition of E2-stimulated uterine growth), in words” value [1]?
A: little or no antiestrogenic activity

Q: How did the “Inhibition ± S.E, % Immature mouse uterine growth Intraperitoneal” value [1] turn out when “EKTPV [5-mer outside the pharmacophoric region]” was run?
A: 0%

Q: What about the “antiestrogenic activity (inhibition of E2-stimulated uterine growth), in words” value [1] of the same molecule?
A: little or no antiestrogenic activity

Q: For `CC(C)[C@@H]1NC(=O)[C@@H]2C[C@@H](O)CN2C(=O)[C@H]([C@@H](C)O)NC(=O)[C@H](CCCCN)NC(=O)[C@H](CCC(=O)O)NC(=O)[C@H](CC(N)=O)NC(=O)CNC(=O)[C@@H]2C[C@@H](O)CN2C(=O)[C@H](CC(N)=O)NC1=O` [cyclo[EKTOVNOGN], reference compound] (cyclo(EKT[Hyp]VN[Hyp]GN)), which “dose-response profile, inhibition of E2-stimulated uterine growth” value (“dose-response profile, inhibition” for short) [1] is on record?
A: attenuated but did not completely eliminate this loss of activity with increasing doses

Q: And the “growth of ER+ human MCF-7 breast cancer tumors” value [3, 4]?
A: significantly inhibited

Q: And the “growth of ER+ human MCF-7 breast cancer tumors” value [3, 5]?
A: significantly inhibited

Q: And the “concentration up to which E2-stimulated T47D growth was inhibited in a concentration dependent manner / activity maintained” value [2]?
A: up to 10^−6 M

Q: What about the “dose response profile, inhibition of E2-stimulated T47D cell growth” value (from here on “dose response profile, inhibition”) [2] of the same molecule?
A: lost activity at higher concentrations

Q: What about the “Inhibition ± S.E, % T47D cell proliferation” value ([2]; peptide 1 μM, E2-stimulated) of the same molecule?
A: 51 ± 4 %

Q: How did the “antiestrogenic activity (inhibition of E2-stimulated uterine growth), in words” value [1] turn out when `CC(C)[C@H](NC(=O)[C@@H]1C[C@@H](O)CN1)C(=O)N[C@@H](CC(N)=O)C(=O)N1C[C@H](O)C[C@H]1C(N)=O` [OVNO] (H-[Hyp]VN[Hyp]-NH2; N-terminus assumed) was run?
A: lacked antiestrogenic activity

Q: What about the “inhibition of E2-stimulated T47D cell growth, in words” value [2] of the same molecule?
A: lacked inhibitory activity

Q: What does the source list for `CC(C)[C@H](NC(=O)[C@@H]1C[C@@H](O)CN1C(=O)[C@@H](N)[C@@H](C)O)C(=O)N[C@@H](CC(N)=O)C(=O)N1C[C@H](O)C[C@H]1C(=O)NCC(=O)N[C@@H](CC(N)=O)C(=O)N[C@@H](CCC(=O)O)C(=O)N[C@@H](CCCCN)C(N)=O` [TOVNOGNEK] (H-T[Hyp]VN[Hyp]GNEK-NH2; N-terminus and C-terminus assumed)?
A: dose-response profile, inhibition of E2-stimulated uterine growth [1]: maintained its inhibitory effect at high doses; antiestrogenic activity (inhibition of E2-stimulated uterine growth), in words [1]: significantly inhibited E2-stimulated uterine growth; growth of ER+ human MCF-7 breast cancer tumors [3, 4]: significantly inhibited; growth of ER+ human MCF-7 breast cancer tumors [3, 5]: significantly inhibited; concentration up to which E2-stimulated T47D growth was inhibited in a concentration dependent manner / activity maintained [2]: ≤ 10^−4 M; dose response profile, inhibition of E2-stimulated T47D cell growth [2]: maintained its activity with increasing concentrations; inhibition of E2-stimulated T47D cell growth, in words [2]: comparable to AFPep

Q: How did the “dose-response profile, inhibition” value [1] turn out when `CC(C)[C@H](NC(=O)[C@@H]1C[C@@H](O)CN1C(=O)[C@@H](NC(=O)[C@H](CCCCN)NC(=O)[C@@H](N)CCC(=O)O)[C@@H](C)O)C(=O)N[C@@H](CC(N)=O)C(=O)N1C[C@H](O)C[C@H]1C(=O)NCC(=O)N[C@@H](CC(N)=O)C(N)=O` [EKTOVNOGN] (H-EKT[Hyp]VN[Hyp]GN-NH2; N-terminus and C-terminus assumed) was run?
A: biphasic dose-response curve

Q: And the “antiestrogenic activity (inhibition of E2-stimulated uterine growth), in words” value [1]?
A: active at this dose

Q: What about the “dose response profile, inhibition” value [2] of the same molecule?
A: biphasic dose response curve

Q: Which “antiestrogenic activity (inhibition of E2-stimulated uterine growth), in words” value [1] does the source give for `CC(C)[C@H](NC(=O)[C@@H]1C[C@@H](O)CN1C(=O)[C@@H](NC(=O)[C@H](CCCCN)NC(=O)[C@@H](N)CCC(=O)O)[C@@H](C)O)C(N)=O` [EKTOV] (H-EKT[Hyp]V-NH2; N-terminus assumed) here?
A: little or no antiestrogenic activity

Q: With `CC(C)[C@H](NC(=O)[C@@H]1C[C@@H](O)CN1C(=O)[C@@H](N)[C@@H](C)O)C(=O)N[C@@H](CC(N)=O)C(=O)N1C[C@H](O)C[C@H]1C(N)=O` [TOVNO] (H-T[Hyp]VN[Hyp]-NH2; N-terminus assumed) as the molecule, how does the “dose-response profile, inhibition” value [1] read?
A: biphasic dose-response curve

Q: And the “dose up to which E2-stimulated uterine growth was inhibited in a dose-dependent manner” value ([1]; FIG. 5c)?
A: up to 1 μg/mouse

Q: What about the “antiestrogenic activity (inhibition of E2-stimulated uterine growth), in words” value [1] of the same molecule?
A: significantly inhibited E2-stimulated uterine growth

Q: And the “change in mean tumor volume” value ([3]; 100 μg/day p.o.)?
A: significantly decreased the increase in tumor volume

Q: And the “change in mean tumor volume” value ([3]; intraperitoneal 1 μg/day)?
A: effective in reducing the increase in mean tumor volume

Q: And the “change in mean tumor volume” value ([3]; intraperitoneal 10 μg/day)?
A: effective in reducing the increase in mean tumor volume

Q: What about the “growth of ER+ human MCF-7 breast cancer tumors” value [3, 4] of the same molecule?
A: significantly inhibited

Q: And the “growth of ER+ human MCF-7 breast cancer tumors” value [3, 5]?
A: significantly inhibited

Q: What about the “estrogen-stimulated T47D cell proliferation” value ([2]; 100 nM peptide/1 nM estrogen, seven days, FIG. 3) of the same molecule?
A: T47D cell proliferation was reduced

Q: What about the “concentration up to which E2-stimulated T47D growth was inhibited in a concentration dependent manner / activity maintained” value [2] of the same molecule?
A: up to 10^−7 M

Q: What about the “dose response profile, inhibition” value [2] of the same molecule?
A: lost activity with increasing concentration thereafter

Q: And the “inhibition of E2-stimulated T47D cell growth, in words” value [2]?
A: significantly inhibited

Q: What does the source list for PVNP?
A: Inhibition ± S.E, % Immature mouse uterine growth Intraperitoneal [1]: 6 ± 3%; Activity % ± SD (percent growth inhibition of uterus) [1]: 10%

Q: Which “Inhibition ± S.E, % Immature mouse uterine growth Intraperitoneal” value [1] does the source give for “MTOVNOG (MT[Hyp]VN[Hyp]G; not fully specified (C-terminus))” here?
A: 28 ± 2 %

Q: What about the “antiestrogenic activity (inhibition of E2-stimulated uterine growth), in words” value [1] of the same molecule?
A: significantly inhibited E2-stimulated uterine growth

Q: Which results are given for TPVN?
A: Inhibition ± S.E, % Immature mouse uterine growth Intraperitoneal [1]: 29 ± 1 %; Activity % ± SD (percent growth inhibition of uterus) [1]: 27%
